Measured values: paper PMC3391087 (The Journal of Biological Chemistry, 2012)

Target: T1, aPIIQGAP1 (C-terminal aPI binding domain of IQGAP1) (Homo sapiens, UniProt P46940)
T1 sequence (P46940 1551-1657): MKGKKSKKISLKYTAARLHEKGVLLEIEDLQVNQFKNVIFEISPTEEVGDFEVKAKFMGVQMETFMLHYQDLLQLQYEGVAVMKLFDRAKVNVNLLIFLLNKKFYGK
Assay: TR-FRET competition
Details: displacement of biotinylated PtdInsP3 (2.5 pmol); 50 nM GST fusion

## PtdInsP3
  IC50: ~500 nM
